From patent US20120122860A1, “SOLID FORMS OF SULFONAMIDES AND AMINO ACIDS” (Plexxikon, Inc., priority 2009, published 2012)

Experiments:
Btk = Btk (Homo sapiens, UniProt Q06187); test: Kinase activity assay, Btk
B-Raf V600E = B-Raf V600E (Homo sapiens, UniProt P15056, V600E); test: Kinase activity assay, B-Raf V600E; format: biochemical; details: read-out: activity toward kinase B-Raf V600E, IC50
Kdr = Kdr (Homo sapiens, UniProt P35968); test: Kinase activity assay, Kdr
B-Raf = B-Raf (Homo sapiens, UniProt P15056); test: Kinase activity assay, B-Raf; format: biochemical; details: read-out: activity toward kinase B-Raf, IC50
B-Raf, sequence (P15056 whole entry): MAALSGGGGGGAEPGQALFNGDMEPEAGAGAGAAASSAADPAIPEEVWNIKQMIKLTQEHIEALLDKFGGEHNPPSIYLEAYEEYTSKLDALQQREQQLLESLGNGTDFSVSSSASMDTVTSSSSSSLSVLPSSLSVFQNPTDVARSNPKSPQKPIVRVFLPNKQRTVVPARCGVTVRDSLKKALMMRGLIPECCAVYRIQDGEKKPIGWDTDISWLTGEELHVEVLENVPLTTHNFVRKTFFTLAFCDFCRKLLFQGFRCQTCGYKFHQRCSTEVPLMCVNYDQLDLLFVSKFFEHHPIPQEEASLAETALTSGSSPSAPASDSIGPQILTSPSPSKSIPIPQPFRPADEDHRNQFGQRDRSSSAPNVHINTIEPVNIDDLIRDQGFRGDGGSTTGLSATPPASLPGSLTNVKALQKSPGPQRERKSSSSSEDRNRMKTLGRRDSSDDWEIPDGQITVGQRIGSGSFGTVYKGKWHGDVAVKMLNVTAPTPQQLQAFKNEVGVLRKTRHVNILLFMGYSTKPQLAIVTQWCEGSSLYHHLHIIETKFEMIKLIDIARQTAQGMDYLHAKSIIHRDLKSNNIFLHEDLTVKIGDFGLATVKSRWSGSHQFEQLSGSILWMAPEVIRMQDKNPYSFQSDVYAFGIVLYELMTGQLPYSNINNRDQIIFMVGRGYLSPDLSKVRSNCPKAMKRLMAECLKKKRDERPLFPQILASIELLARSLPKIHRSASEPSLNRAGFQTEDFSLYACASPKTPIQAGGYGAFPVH

Kit = Kit (Homo sapiens, UniProt P10721); test: Kinase activity assay, Kit
Kit, sequence (P10721 26-976): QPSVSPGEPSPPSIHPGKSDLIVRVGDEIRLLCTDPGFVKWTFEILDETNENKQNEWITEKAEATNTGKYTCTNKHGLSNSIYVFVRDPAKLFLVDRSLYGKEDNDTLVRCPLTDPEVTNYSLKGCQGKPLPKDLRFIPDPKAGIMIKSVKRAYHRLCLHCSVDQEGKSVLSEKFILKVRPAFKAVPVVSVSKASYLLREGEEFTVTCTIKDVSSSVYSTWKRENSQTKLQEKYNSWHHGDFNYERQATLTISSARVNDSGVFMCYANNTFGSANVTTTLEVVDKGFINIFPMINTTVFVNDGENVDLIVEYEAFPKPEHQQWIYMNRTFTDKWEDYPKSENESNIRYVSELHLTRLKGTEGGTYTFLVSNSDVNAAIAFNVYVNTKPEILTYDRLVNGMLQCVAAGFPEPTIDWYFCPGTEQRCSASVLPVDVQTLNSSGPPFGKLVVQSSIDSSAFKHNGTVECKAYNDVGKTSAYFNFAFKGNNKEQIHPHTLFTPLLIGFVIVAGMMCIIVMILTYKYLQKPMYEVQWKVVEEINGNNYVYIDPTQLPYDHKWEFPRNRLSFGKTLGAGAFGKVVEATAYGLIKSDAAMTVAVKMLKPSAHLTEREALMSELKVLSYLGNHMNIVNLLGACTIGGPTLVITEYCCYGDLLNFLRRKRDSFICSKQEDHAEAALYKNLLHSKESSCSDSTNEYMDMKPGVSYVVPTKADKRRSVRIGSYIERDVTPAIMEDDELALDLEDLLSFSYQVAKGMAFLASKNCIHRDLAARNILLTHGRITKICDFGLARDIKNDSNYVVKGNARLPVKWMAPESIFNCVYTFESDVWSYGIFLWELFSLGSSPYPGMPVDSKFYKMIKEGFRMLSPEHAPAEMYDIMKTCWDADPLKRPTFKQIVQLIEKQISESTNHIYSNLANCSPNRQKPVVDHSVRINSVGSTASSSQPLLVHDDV

Src = Src (Homo sapiens, UniProt P12931); test: Kinase activity assay, Src
Src, sequence (P12931 whole entry): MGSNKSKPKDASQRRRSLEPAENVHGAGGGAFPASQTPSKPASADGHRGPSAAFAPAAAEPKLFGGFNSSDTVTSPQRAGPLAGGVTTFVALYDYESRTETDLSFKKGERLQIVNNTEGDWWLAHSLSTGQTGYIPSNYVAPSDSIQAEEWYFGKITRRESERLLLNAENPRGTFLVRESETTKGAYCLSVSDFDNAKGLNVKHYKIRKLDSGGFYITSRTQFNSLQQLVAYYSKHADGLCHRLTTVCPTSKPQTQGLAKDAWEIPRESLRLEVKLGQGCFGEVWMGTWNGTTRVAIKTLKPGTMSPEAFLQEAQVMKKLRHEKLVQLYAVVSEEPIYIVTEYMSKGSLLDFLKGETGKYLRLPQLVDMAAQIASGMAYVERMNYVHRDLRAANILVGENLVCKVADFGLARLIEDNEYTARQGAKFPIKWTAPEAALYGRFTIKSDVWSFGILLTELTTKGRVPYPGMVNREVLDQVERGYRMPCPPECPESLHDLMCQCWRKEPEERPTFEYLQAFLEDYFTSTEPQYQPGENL

TEC = target: T1, TEC (Homo sapiens, UniProt P42680); test: Kinase activity assay, TEC
T1 sequence (P42680 1-631): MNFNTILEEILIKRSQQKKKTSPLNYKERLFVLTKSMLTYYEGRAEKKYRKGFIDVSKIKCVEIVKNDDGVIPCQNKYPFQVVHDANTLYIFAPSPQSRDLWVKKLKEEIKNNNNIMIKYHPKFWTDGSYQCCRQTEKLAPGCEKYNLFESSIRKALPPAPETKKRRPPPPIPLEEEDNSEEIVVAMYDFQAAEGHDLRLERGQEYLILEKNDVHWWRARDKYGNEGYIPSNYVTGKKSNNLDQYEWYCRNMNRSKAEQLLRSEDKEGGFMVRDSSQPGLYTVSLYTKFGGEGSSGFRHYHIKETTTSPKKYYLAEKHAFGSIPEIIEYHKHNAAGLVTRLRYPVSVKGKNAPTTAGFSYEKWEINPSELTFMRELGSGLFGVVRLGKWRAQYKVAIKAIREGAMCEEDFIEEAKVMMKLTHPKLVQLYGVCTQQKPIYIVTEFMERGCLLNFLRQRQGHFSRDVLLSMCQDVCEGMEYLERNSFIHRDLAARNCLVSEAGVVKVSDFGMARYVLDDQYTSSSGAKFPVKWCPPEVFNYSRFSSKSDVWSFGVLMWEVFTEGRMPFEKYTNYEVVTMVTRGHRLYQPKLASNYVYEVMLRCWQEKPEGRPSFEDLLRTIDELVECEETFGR

A-Raf = target: T2, A-Raf (Homo sapiens, UniProt P10398); test: Kinase activity assay, A-Raf
T2 sequence (P10398 1-606): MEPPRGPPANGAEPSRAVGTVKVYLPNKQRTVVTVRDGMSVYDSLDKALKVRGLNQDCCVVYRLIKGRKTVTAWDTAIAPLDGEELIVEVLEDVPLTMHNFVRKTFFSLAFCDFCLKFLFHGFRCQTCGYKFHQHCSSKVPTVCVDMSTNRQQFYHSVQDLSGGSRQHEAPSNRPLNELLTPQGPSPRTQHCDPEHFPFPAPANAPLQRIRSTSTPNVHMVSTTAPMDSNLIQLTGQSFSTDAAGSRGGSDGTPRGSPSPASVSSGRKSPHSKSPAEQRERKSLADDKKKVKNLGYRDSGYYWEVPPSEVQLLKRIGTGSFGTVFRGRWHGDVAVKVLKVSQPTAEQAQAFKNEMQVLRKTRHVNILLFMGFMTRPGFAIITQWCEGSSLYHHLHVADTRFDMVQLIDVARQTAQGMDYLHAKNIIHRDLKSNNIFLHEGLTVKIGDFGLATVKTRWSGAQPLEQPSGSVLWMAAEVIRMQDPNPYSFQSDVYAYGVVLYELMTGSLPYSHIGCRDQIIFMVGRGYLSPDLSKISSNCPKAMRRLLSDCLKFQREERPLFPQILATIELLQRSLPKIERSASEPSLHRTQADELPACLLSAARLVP

C-Raf = C-Raf (Homo sapiens, UniProt P04049); test: Kinase activity assay, C-Raf
C-Raf, sequence (P04049 whole entry): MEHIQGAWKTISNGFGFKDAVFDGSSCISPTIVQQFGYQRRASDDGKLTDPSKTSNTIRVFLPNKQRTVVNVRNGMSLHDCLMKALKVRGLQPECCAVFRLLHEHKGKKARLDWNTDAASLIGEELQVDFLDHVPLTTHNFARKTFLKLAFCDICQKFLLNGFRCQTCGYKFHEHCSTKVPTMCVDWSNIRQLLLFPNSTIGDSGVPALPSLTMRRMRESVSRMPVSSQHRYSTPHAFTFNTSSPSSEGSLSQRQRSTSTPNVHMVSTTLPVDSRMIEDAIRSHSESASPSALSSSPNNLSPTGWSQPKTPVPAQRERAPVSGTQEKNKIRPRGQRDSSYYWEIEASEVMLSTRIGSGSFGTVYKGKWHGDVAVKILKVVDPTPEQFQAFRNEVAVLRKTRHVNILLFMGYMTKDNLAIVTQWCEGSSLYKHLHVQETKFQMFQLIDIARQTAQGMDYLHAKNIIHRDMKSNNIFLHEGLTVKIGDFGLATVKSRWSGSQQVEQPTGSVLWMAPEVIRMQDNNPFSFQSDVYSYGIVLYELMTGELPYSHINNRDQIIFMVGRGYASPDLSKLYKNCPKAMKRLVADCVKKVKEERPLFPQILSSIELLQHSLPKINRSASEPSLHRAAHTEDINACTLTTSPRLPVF

MAP4K4 = MAP4K4 (Homo sapiens, UniProt O95819); test: Kinase activity assay, MAP4K4
Fms = Fms (Homo sapiens, UniProt P07333); test: Kinase activity assay, Fms

Btk, sequence (Q06187 whole entry): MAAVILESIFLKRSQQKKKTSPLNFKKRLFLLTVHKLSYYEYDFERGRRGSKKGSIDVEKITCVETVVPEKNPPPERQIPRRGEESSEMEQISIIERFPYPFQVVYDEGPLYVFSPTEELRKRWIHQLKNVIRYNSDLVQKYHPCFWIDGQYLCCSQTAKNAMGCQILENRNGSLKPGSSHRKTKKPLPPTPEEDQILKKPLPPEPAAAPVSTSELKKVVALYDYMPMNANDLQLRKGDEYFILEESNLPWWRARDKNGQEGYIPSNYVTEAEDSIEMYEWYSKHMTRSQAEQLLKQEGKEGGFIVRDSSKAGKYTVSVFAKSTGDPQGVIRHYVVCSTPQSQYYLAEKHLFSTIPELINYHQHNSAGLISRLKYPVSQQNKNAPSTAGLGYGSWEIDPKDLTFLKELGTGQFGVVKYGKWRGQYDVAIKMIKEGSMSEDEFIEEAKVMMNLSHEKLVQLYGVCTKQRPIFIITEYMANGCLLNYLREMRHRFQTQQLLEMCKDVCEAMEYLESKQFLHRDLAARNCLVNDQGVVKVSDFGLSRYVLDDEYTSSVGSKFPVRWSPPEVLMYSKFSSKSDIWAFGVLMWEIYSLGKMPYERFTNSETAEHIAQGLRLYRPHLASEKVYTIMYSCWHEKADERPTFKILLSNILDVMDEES
Kdr, sequence (P35968 20-1356): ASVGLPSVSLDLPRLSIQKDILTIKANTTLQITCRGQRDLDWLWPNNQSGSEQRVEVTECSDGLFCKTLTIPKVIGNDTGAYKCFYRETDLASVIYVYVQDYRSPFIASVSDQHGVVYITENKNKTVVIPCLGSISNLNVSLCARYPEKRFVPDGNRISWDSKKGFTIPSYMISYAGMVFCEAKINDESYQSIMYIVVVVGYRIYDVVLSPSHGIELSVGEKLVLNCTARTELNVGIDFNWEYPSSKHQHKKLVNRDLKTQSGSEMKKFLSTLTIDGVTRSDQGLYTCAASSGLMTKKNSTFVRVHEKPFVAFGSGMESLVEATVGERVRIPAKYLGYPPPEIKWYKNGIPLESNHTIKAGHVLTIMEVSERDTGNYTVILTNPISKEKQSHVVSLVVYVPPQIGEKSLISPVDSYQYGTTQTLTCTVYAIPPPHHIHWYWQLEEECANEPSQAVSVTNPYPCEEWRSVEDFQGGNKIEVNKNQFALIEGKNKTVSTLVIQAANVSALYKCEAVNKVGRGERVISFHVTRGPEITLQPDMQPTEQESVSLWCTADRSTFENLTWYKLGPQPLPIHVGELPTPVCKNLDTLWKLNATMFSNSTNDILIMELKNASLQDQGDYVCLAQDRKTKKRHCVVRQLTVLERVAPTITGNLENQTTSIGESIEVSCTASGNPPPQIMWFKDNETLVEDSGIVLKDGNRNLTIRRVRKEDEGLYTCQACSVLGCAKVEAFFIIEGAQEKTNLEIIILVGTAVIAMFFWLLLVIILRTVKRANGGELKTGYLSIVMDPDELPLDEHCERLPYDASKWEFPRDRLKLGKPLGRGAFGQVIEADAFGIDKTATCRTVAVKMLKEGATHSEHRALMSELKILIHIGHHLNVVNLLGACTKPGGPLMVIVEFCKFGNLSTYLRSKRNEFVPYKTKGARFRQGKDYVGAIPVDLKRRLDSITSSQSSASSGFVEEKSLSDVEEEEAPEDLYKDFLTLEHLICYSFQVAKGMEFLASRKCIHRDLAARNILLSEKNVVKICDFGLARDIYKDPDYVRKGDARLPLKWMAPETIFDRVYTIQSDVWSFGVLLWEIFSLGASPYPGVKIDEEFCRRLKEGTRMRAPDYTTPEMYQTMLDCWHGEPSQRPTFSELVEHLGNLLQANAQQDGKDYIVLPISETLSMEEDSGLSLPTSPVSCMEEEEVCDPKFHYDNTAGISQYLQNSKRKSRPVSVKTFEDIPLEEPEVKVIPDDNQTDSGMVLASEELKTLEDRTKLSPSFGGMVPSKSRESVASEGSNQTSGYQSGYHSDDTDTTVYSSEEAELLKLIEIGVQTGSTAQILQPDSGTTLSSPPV
B-Raf V600E, sequence (P15056 whole entry V600E): as the sequence (P15056 whole entry) above, with V600E counted along it

Row | Structure (SMILES) | IC50 (Btk) [µM] | IC50 (B-Raf V600E) [µM] | IC50 (Kdr) [µM] | IC50 (B-Raf) [µM] | IC50 (Kit) [µM] | IC50 (Src) [µM] | IC50 (TEC) [µM] | IC50 (A-Raf) [µM] | IC50 (C-Raf) [µM] | IC50 (MAP4K4) [µM] | IC50 (Fms) [µM]
1 | N#Cc1cnc2[nH]cc(C(=O)c3cccc(NS(=O)(=O)c4cccnc4)c3F)c2c1 [P-2086, Pyridine-3-sulfonic acid [3-(5-cyano-1H-pyrrolo[2,3-b]pyridine-3-carbonyl)-2-fluoro-phenyl]-amide] | ≤ 10 |  |  |  |  |  |  |  |  |  | 
2 | CN(C)S(=O)(=O)Nc1ccc(F)c(C(=O)c2c[nH]c3ncccc23)c1 [P-2469, N,N-dimethylamino-sulfonic acid [4-fluoro-3-(1H-pyrrolo[2,3-b]pyridine-3-carbonyl)-phenyl]-amide] | ≤ 10 |  | ≤ 10 |  |  |  |  |  |  |  | ≤ 10
3 | O=C(c1cc(NS(=O)(=O)c2ccc(F)cc2)ccc1F)c1c[nH]c2ncccc12 [P-2114, 4-Fluoro-N-[4-fluoro-3-(1H-pyrrolo[2,3-b]pyridine-3-carbonyl)-phenyl]-benzenesulfonamide] | ≤ 10 |  | ≤ 10 |  | ≤ 10 |  |  |  |  |  | ≤ 10
4 | COc1ccnc2[nH]cc(C(=O)c3c(F)ccc(NS(=O)(=O)c4ccc(C(F)(F)F)cc4)c3F)c12 [P-2047, N-[2,4-Difluoro-3-(4-methoxy-1H-pyrrolo[2,3-b]pyridine-3-carbonyl)-phenyl]-4-trifluoromethyl-benzenesulfonamide] |  | ≤ 10 |  | ≤ 10 | ≤ 10 | ≤ 10 | ≤ 10 | ≤ 10 | ≤ 10 |  | 
5 | Cc1cnc2[nH]cc(C(=O)c3c(F)ccc(NS(=O)(=O)C(C)C)c3F)c2c1 [P-2278, Propane-2-sulfonic acid [2,4-difluoro-3-(5-methyl-1H-pyrrolo[2,3-b]pyridine-3-carbonyl)-phenyl]-amide] |  | ≤ 10 | ≤ 10 | ≤ 10 |  |  | ≤ 10 | ≤ 10 | ≤ 10 | ≤ 10 | 
6 | CCCS(=O)(=O)Nc1ccc(F)c(C(=O)c2c[nH]c3ncc(CN4CCN(C)CC4)cc23)c1F [P-2257, Propane-1-sulfonic acid {2,4-difluoro-3-[5-(4-methyl-piperazin-1-ylmethyl)-1H-pyrrolo[2,3-b]pyridine-3-carbonyl]-phenyl}-amide] |  | ≤ 10 |  | ≤ 10 |  |  | ≤ 10 | ≤ 10 | ≤ 10 |  | 
7 | CS(=O)(=O)Nc1ccc(F)c(C(=O)c2c[nH]c3nccc(C#N)c23)c1F [P-2292, N-[3-(4-Cyano-1H-pyrrolo[2,3-b]pyridine-3-carbonyl)-2,4-difluoro-phenyl]-methanesulfonamide] |  | ≤ 10 | ≤ 10 |  |  |  | ≤ 10 | ≤ 10 | ≤ 10 |  | 

Continued, values first:

Row | IC50 (Btk) [µM] | IC50 (B-Raf V600E) [µM] | IC50 (Kdr) [µM] | IC50 (B-Raf) [µM] | IC50 (Kit) [µM] | IC50 (Src) [µM] | IC50 (TEC) [µM] | IC50 (A-Raf) [µM] | IC50 (C-Raf) [µM] | IC50 (MAP4K4) [µM] | IC50 (Fms) [µM] | Structure (SMILES)
8 | ≤ 10 | ≤ 10 | ≤ 10 |  |  |  |  |  |  |  |  | CCCS(=O)(=O)Nc1ccc(F)c(C(=O)c2c[nH]c3ncc(-c4ccc(F)c(C(F)(F)F)c4)cc23)c1F [P-2160, Propane-1-sulfonic acid {2,4-difluoro-3-[5-(4-fluoro-3-trifluoromethyl-phenyl)-1H-pyrrolo[2,3-b]pyridine-3-carbonyl]-phenyl}-amide]
9 |  | ≤ 10 | ≤ 10 | ≤ 10 | ≤ 10 | ≤ 10 | ≤ 10 | ≤ 10 | ≤ 10 | ≤ 10 |  | O=C(c1c(F)ccc(NS(=O)(=O)C2CCC2)c1F)c1c[nH]c2ncc(Cl)cc12 [P-2354, Cyclobutanesulfonic acid [3-(5-chloro-1H-pyrrolo[2,3-b]pyridine-3-carbonyl)-2,4-difluoro-phenyl]-amide]
10 |  | ≤ 10 |  | ≤ 10 | ≤ 10 | ≤ 10 | ≤ 10 | ≤ 10 | ≤ 10 |  |  | N#Cc1cnc2[nH]cc(C(=O)c3c(F)ccc(NS(=O)(=O)c4ccccc4)c3F)c2c1 [P-2046, N-[3-(5-Cyano-1H-pyrrolo[2,3-b]pyridine-3-carbonyl)-2,4-difluoro-phenyl]-benzenesulfonamide]
11 | ≤ 10 | ≤ 10 |  |  |  |  |  |  | ≤ 10 |  |  | CCS(=O)(=O)Nc1cccc(C(=O)c2c[nH]c3ncc(C#N)cc23)c1F [P-2410, Ethanesulfonic acid [3-(5-cyano-1H-pyrrolo[2,3-b]pyridine-3-carbonyl)-2-fluoro-phenyl]-amide]
12 |  | ≤ 10 | ≤ 10 | ≤ 10 |  |  | ≤ 10 | ≤ 10 | ≤ 10 |  |  | CCCS(=O)(=O)Nc1ccc(F)c(C(=O)c2c[nH]c3ncc(CO)cc23)c1F [P-2250, Propane-1-sulfonic acid [2,4-difluoro-3-(5-hydroxymethyl-1H-pyrrolo[2,3-b]pyridine-3-carbonyl)-phenyl]-amide]
13 |  | ≤ 10 | ≤ 10 | ≤ 10 |  |  | ≤ 10 | ≤ 10 | ≤ 10 | ≤ 10 |  | CCCS(=O)(=O)Nc1ccc(F)c(C(=O)c2c[nH]c3ncc(CCCN4CCOCC4)cc23)c1F [P-2247, Propane-1-sulfonic acid {2,4-difluoro-3-[5-(3-morpholin-4-yl-propyl)-1H-pyrrolo[2,3-b]pyridine-3-carbonyl]-phenyl}-amide]
14 |  | ≤ 10 | ≤ 10 | ≤ 10 |  |  | ≤ 10 | ≤ 10 | ≤ 10 |  |  | CCCS(=O)(=O)Nc1ccc(F)c(C(=O)c2c[nH]c3ncc(CCCN4CCCC4)cc23)c1F [P-2248, Propane-1-sulfonic acid {2,4-difluoro-3-[5-(3-pyrrolidin-1-yl-propyl)-1H-pyrrolo[2,3-b]pyridine-3-carbonyl]-phenyl}-amide]
15 |  | ≤ 10 | ≤ 10 | ≤ 10 |  | ≤ 10 | ≤ 10 | ≤ 10 | ≤ 10 |  |  | C#Cc1ccnc2[nH]cc(C(=O)c3c(F)ccc(NS(=O)(=O)CCC)c3F)c12 [P-2261, Propane-1-sulfonic acid [3-(4-ethynyl-1H-pyrrolo[2,3-b]pyridine-3-carbonyl)-2,4-difluoro-phenyl]-amide]
16 |  | ≤ 10 | ≤ 10 | ≤ 10 | ≤ 10 |  | ≤ 10 | ≤ 10 | ≤ 10 | ≤ 10 |  | N#Cc1cnc2[nH]cc(C(=O)c3c(F)ccc(NS(=O)(=O)C4CCC4)c3F)c2c1 [P-2353, Cyclobutanesulfonic acid [3-(5-cyano-1H-pyrrolo[2,3-b]pyridine-3-carbonyl)-2,4-difluoro-phenyl]-amide]
17 |  | ≤ 10 | ≤ 10 | ≤ 10 | ≤ 10 | ≤ 10 | ≤ 10 | ≤ 10 | ≤ 10 |  |  | N#Cc1ccnc2[nH]cc(C(=O)c3c(F)ccc(NS(=O)(=O)c4ccccc4F)c3F)c12 [P-2020, N-[3-(4-Cyano-1H-pyrrolo[2,3-b]pyridine-3-carbonyl)-2,4-difluoro-phenyl]-2-fluoro-benzenesulfonamide]
18 |  | ≤ 10 | ≤ 10 | ≤ 10 |  | ≤ 10 | ≤ 10 | ≤ 10 | ≤ 10 | ≤ 10 |  | O=C(c1c(F)ccc(NS(=O)(=O)c2ccccn2)c1F)c1c[nH]c2ncc(Cl)cc12 [P-2067, Pyridine-2-sulfonic acid [3-(5-chloro-1H-pyrrolo[2,3-b]pyridine-3-carbonyl)-2,4-difluoro-phenyl]-amide]
